O=C(O)CNC(=O)C(=O)NCC(=O)O
solubility (mole fraction)
Details | 293.15 K | 298.15 K | 303.15 K | 308.15 K | 313.15 K | 318.15 K | 323.15 K | 328.15 K | 333.15 K
in DMF | 0.0292 | 0.0401 | 0.0519 | 0.0629 | 0.0732 | 0.082 | 0.0879 | 0.0909 | 0.0923
in DMSO | 0.0675 | 0.0736 | 0.0807 | 0.0879 | 0.0963 | 0.105 | 0.114 | 0.124 | 0.136
in THF | 3.5e-06 | 1.41e-05 | 4.17e-05 | 9.96e-05 | 0.000203 | 0.000354 | 0.000527 | 0.000715 | 0.000892
in acetonitrile | 1.6e-06 | 3.2e-06 | 5.6e-06 | 9.2e-06 | 1.41e-05 | 2.01e-05 | 2.73e-05 | 3.62e-05 | 4.71e-05
in ethanol | 2.08e-05 | 3.75e-05 | 6.27e-05 | 0.000104 | 0.000155 | 0.000216 | 0.00029 | 0.000382 | 0.0005
in ethyl acetate | 4.3e-06 | 6e-06 | 7.8e-06 | 1.04e-05 | 1.38e-05 | 1.81e-05 | 2.24e-05 | 2.76e-05 | 3.37e-05
in isopropanol | 7.7e-06 | 1.47e-05 | 2.59e-05 | 4.71e-05 | 7.77e-05 | 0.000118 | 0.000174 | 0.000246 | 0.000355
in methanol | 0.000159 | 0.000222 | 0.000303 | 0.000409 | 0.000527 | 0.000663 | 0.000816 | 0.000997 | 0.00121
in n-butanol | 2.9e-06 | 5.3e-06 | 1e-05 | 1.77e-05 | 3.06e-05 | 5.12e-05 | 7.95e-05 | 0.00012 | 0.00019
in n-propanol | 5.9e-06 | 8.2e-06 | 1.3e-05 | 2.06e-05 | 3.41e-05 | 5.83e-05 | 0.000104 | 0.000198 | 0.000355
in water | 0.000127 | 0.000183 | 0.000267 | 0.000362 | 0.00048 | 0.000634 | 0.000816 | 0.00105 | 0.00136

— BigSolDB 2.1
